Source: ChEMBL document CHEMBL4706629, “New derivatives of 4'-phenyl-2,2':6',2″-terpyridine as promising anticancer agents” (Eur J Med Chem, 2021)
Calls of active or inactive are those of the source. No cut-off for these calls is given here.

What was measured:
MCF7 [1] = assay: Cytotoxicity against human MCF7 cells assessed as reduction in cell viability measured after 72 hrs by MTS assay; format: functional, cell-based; details: MCF7, 72 h
U-251 = assay: Cytotoxicity against human U-251 cells assessed as reduction in cell viability measured after 72 hrs by MTS assay; format: functional, cell-based; details: U-251, 72 h
NHDF = assay: Cytotoxicity against NHDF cells assessed as reduction in cell viability measured after 72 hrs by MTS assay; format: cell-based; details: Homo sapiens
K562 = assay: Cytotoxicity against human K562 cells assessed as reduction in cell viability measured after 72 hrs by MTS assay; format: functional, cell-based; details: K562, 72 h
HCT-116 = assay: Cytotoxicity against human HCT-116 cells assessed as reduction in cell viability measured after 72 hrs by MTS assay; format: functional, cell-based; details: HCT-116, 72 h
PANC-1 [2] = assay: Cytotoxicity against human PANC-1 cells assessed as reduction in cell viability measured after 72 hrs by MTS assay; format: functional, cell-based; details: PANC-1, 72 h
[3] = Dark toxicity in human HeLa cells assessed as reduction in cell viability measured after 4 hrs by resazurin dye based fluorescence assay
PANC-1 [4] = assay: Induction of autophagy in human PANC-1 cells assessed as increase in LC3 expression at 25 uM measured after 24 hrs by muse cell analyzer based fluorescence assay relative to control; format: functional
[5] = Drug localization in mitochondria of human MCF7 cells at 25 uM measured after 2 hrs by mitotracker orange dye based microscopic analysis; format: ADME; details: mcf7, 2 h
[6] = Drug localization in lysosomes of human MCF7 cells at 25 uM measured after 2 hrs by lysotracker red DND-99 dye based microscopic analysis; format: ADME, subcellular, Lysosome; details: mcf7, 2 h
MCF7 [7] = assay: Up regulation of p53 expression in human MCF7 cells at 5 uM measured after 24 hrs by Western blot analysis; format: functional, cell-based
PANC-1 [8] = assay: Up regulation of p53 expression in human PANC-1 cells at 5 uM measured after 24 hrs by Western blot analysis relative to control; format: functional, cell-based

Row | SMILES | IC50 (MCF7 [1]) [nM] | IC50 (U-251) [nM] | IC50 (NHDF) [nM] | IC50 (K562) [nM] | IC50 (HCT-116) [nM] | IC50 (PANC-1 [2]) [nM] | IC50 at 4 h [3] [nM] | fold change (FC) (PANC-1 [4]) | Drug uptake [5] | Drug uptake [6] | Activity (MCF7 [7]) | Activity (PANC-1 [8])
1 | CCCCCOc1ccc(-c2cn(-c3ccc(-c4cc(-c5ccccn5)nc(-c5ccccn5)c4)cc3)nn2)cc1 | 871 | 609 | > 25000 | 1790 | 491 | 374 |  |  |  |  |  | 
2 | O=C(O)c1cc(-c2cccnc2)nc(-c2ccccn2)c1 |  |  |  |  |  |  | 50500 |  |  |  |  | 
3 | COc1cc(-c2cccnc2)nc(-c2ccccn2)c1 |  |  |  |  |  |  | 40900 |  |  |  |  | 
4 | Cc1ccc(NC(=O)c2ccc(CN3CCN(C)CC3)cc2)cc1Nc1nccc(-c2cccnc2)n1 [IMATINIB] |  |  |  |  |  |  |  | 2 |  |  |  | 
5 | CN(C)c1cc(-c2cccnc2)nc(-c2ccccn2)c1 |  |  |  |  |  |  | 19600 |  |  |  |  | 
6 | CCCCCCCCn1c2ccccc2c2cc(-c3cn(-c4ccc(-c5cc(-c6ccccn6)nc(-c6ccccn6)c5)cc4)nn3)ccc21 | 9960 | 10100 | > 25000 | 5500 | 6260 | 3590 |  |  |  |  |  | 
7 | c1ccc(-c2cn(-c3ccc(-c4cc(-c5ccccn5)nc(-c5ccccn5)c4)cc3)nn2)cc1 | 477 | 955 | > 25000 | 741 | 249 | 287 |  |  |  |  |  | 
8 | CC1(C)c2ccccc2-c2ccc(-c3cn(-c4ccc(-c5cc(-c6ccccn6)nc(-c6ccccn6)c5)cc4)nn3)cc21 | 1070 | 1880 | > 25000 | 625 | 1290 | 1870 |  |  | Active | Active |  | 
9 | N#Cc1ccc(-c2cn(-c3ccc(-c4cc(-c5ccccn5)nc(-c5ccccn5)c4)cc3)nn2)cc1 | 372 | 1830 | 2030 | 1570 | 1310 | 920 |  |  |  |  |  | 
10 | Oc1cn(-c2ccc(-c3cc(-c4ccccn4)nc(-c4ccccn4)c3)cc2)nn1 | 592 | 1400 | 11800 | 1310 | 782 | 689 |  |  |  |  |  | 
11 | Clc1cc(-c2cccnc2)nc(-c2ccccn2)c1 |  |  |  |  |  |  | 26500 |  |  |  |  | 
12 | c1ccc(-c2cc(-c3ccc(-n4cc(-c5ccc6sc7ccccc7c6c5)nn4)cc3)cc(-c3ccccn3)n2)nc1 | 1720 | 2390 | > 25000 | 7380 | 918 | 784 |  |  |  |  |  | 
13 | CCCCCCCCCCn1cc(-c2ccc(-c3cc(-c4cnccn4)nc(-c4cnccn4)c3)cc2)nn1 | > 25000 | > 25000 |  | > 25000 | > 25000 | > 25000 |  |  |  |  |  | 
14 | CCCCCCCCCCn1cc(-c2ccc(-c3cc(-c4nccs4)nc(-c4nccs4)c3)cc2)nn1 | > 25000 | > 25000 |  | > 25000 | > 25000 | > 25000 |  |  |  |  |  | 
15 | CCCCCCCCCCCCc1cn(-c2ccc(-c3cc(-c4ccccn4)nc(-c4ccccn4)c3)cc2)nn1 | 11200 | 20400 | 9070 | 19800 | 13500 | > 25000 |  |  |  |  |  | 
16 | c1ccc(-c2cc(-c3ccc(-n4cc(-c5ccc(-c6cccs6)s5)nn4)cc3)cc(-c3ccccn3)n2)nc1 | 1790 | 3590 | > 25000 | 1950 | 822 | 2220 |  |  |  |  |  | 
17 | c1ccc(-c2cccc(-c3cccnc3)n2)nc1 |  |  |  |  |  |  | 35100 |  |  |  |  | 
18 | COc1cccc2c1C(=O)c1c(O)c3c(c(O)c1C2=O)C[C@@](O)(C(=O)CO)C[C@@H]3O[C@H]1C[C@H](N)[C@H](O)[C@H](C)O1 [DOXORUBICIN] | 405 | 52 | 137 | 19 |  |  |  |  |  |  | Active | Active
